The subject of this test is blood tripomastigote forms of different lines of Trypanosoma cruzi. Briefly: Tripanocidal activity: percentual of lysis of blood tripomastigote forms in infected mouse blood. The format is cell-based. The settings on record: for killing at 25 µg/mL / IC50 / killing at 50 µg/mL: Trypanosoma cruzi; for killing at 25 µg/mL: read-out: % lysis; for anti-Chagas activity: statement in words. As for the experimental part:
Evaluation of the tripanocidal activity was made by checking percentual of lysis from blood tripomastigote forms of different lines of Trypanosoma cruzi, isolated from […] of mice on the parasitemic peak. Biological essays have been made on 200 μl titration microplaques containing about […] forms of the parasite in each milliliter of used blood. Substance concentrations as used for evaluation were of 10, 25 and 50 μg/ml, which were solubilized under PBS buffer containing 5% dimethyl sulfoxide. After adding substances, infected blood has been incubated at 4° C. under constant shaking for a 24-hour period. After that period, the quantity of parasites surviving to the action of substances was counted in an optical microscope and in comparison to the negative control group (infected blood, adding the solution used to solubilized substances), calculations concerning the determination of lysis percentual have been made. As a positive control, gentian violet has been used under concentration of 250 μg/ml, as indicated for chemoprophylaxis. All essays have been made in triplicate.
The biological activity protocol as described above is already fully published and used in the scientific field, being therefore standardized regarding tripanocidal activity (chemoprophylaxis and susceptibility evaluation for the parasite).
Various scientific works using this method, which is even presented in the original evaluation work for the biological activity of cubebin, as published by Bastos and contributors in 1999.

[1] abbreviates: 50 μg/ml, infected blood, 4° C., 24 h.
Where [2] appears, read: 25 μg/ml, infected blood, 4° C., 24 h.
[3] abbreviates: lysis of blood tripomastigotes, 24 h at 4° C., read-out: IC50.

This note sets out measurements from patent US7521569B2, “Process to obtain dibenzylbutyrolactonic lignans, process to obtain synthetic derivatives from lignans bearing anti-Chagas chemoprophylactic and therapeutical activities” (Fundação De Amparo À Pesquisa Do Estado de São Paulo, priority 2002, dated 2009).

Each structure is given as a SMILES string. Values after ≈ are worked out from the molar mass of the structure shown. Read-outs that look alike come from different tables or passages of the source.

Usually IC50 stands for the concentration at which inhibition is half-maximal. For `CN(C)CCOC1OC[C@H](Cc2ccc3c(c2)OCO3)[C@H]1Cc1ccc2c(c1)OCO2` (single isomer, unassigned; (-)) [O-dimethylethylamine cubebin, (−)-O-dimethylethylamine-cubebin], the anti-Chagas activity result is on record as “bear anti-Chagas activity”. For the same compound, under setting [1], the “% lysis” value is 50/100%. For the same compound, the killing at 25 µg/mL under setting [2] worked out at 90.1%. The IC50 under setting [3] worked out at 3 µg/mL (≈ 7.02 µM).

For `O=C1OC[C@H](Cc2cc3c(cc2[N+](=O)[O-])OCO3)[C@H]1Cc1cc2c(cc1[N+](=O)[O-])OCO2` [6,6′-Dinitrohinokinin, 6, 6′-Dinitrohinokinin], the anti-Chagas activity result is on record as “bear anti-Chagas activity”. Moreover, the killing at 25 µg/mL (24 h) stood at 57.6%. For the same compound, under setting [1], the killing at 50 µg/mL amounted to 82.8%. The IC50 under setting [3] is 37.1 µg/mL (≈ 83.5 µM).

Consider `OC1OC[C@H](Cc2ccc3c(c2)OCO3)[C@H]1Cc1ccc2c(c1)OCO2` (stereo partly drawn) [Cubebin, cubebin], for which the anti-Chagas activity entry is “bear anti-Chagas activity”. In addition, the killing at 25 µg/mL under setting [2] was 7.3%. In addition, the killing at 50 µg/mL under setting [1] amounted to 52.3%. In addition, the IC50 under setting [3] worked out at 97.6 µg/mL (≈ 274 µM).

As for `CN(C)c1ccc(C(=C2C=CC(=[N+](C)C)C=C2)c2ccc(N(C)C)cc2)cc1` [Gentian violet, gentian violet, reference compound], where the note is “250 μg/ml (positive control), infected blood, 4° C., 24 h”, the “% lysis” value was 250/100%. Moreover, the IC50 under setting [3] came out at 76 µg/mL.

As for `O=C1OC[C@H](Cc2ccc3c(c2)OCO3)[C@H]1Cc1ccc2c(c1)OCO2` [Hinokinin], the anti-Chagas activity result is given as “bear anti-Chagas activity”. Moreover, the killing at 25 µg/mL under setting [2] stood at 80.1%. This compound returned a killing at 50 µg/mL under setting [1] of 95.4%. The IC50 under setting [3] turned out to be 0.9 µg/mL (≈ 2.54 µM).

On to `COc1ccc(C[C@H]2C(=O)OC[C@@H]2Cc2ccc3c(c2)OCO3)cc1OC` [Metilpluviatolide, methylpluviatolide], for which the anti-Chagas activity entry is listed as “bear anti-Chagas activity”. Further, the “% lysis” value under setting [1] is 50/100%. For the same compound, for the setting “24 h”, half-maximal inhibition (IC50) required 1.3 µg/mL (≈ 3.51 µM) and the killing at 25 µg/mL came to 99%.

For the compound `CC(=O)OC1OC[C@H](Cc2ccc3c(c2)OCO3)[C@H]1Cc1ccc2c(c1)OCO2` (stereo partly drawn) [O-acetyl cubebin, O-acetyl Cubebin], the anti-Chagas activity result is given as “bear anti-Chagas activity”. Moreover, the “% lysis” value under setting [1] is recorded as 50/100%. In addition, the killing at 25 µg/mL under setting [2] was 76.2%. Besides, under setting [3], the IC50 is 16.9 µg/mL (≈ 42.4 µM).

With `COC1OC[C@H](Cc2ccc3c(c2)OCO3)[C@H]1Cc1ccc2c(c1)OCO2` (stereo partly drawn) [O-methyl cubebin, O-methyl Cubebin], the anti-Chagas activity result was “bear anti-Chagas activity”. Further, under setting [2], the killing at 25 µg/mL was determined as 13.9%. For the same compound, the killing at 50 µg/mL under setting [1] turned out to be 62%. Moreover, the IC50 under setting [3] came out at 86.3 µg/mL (≈ 233 µM).
